{
  "source": "patent US8383581B2",
  "about": "“Short-chain peptides as parathyroid hormone (PTH) receptor agonist” (Cadila Healthcare Limited, priority 2009, dated 2013)",
  "system": "ovariectomised (OVX) rats",
  "experiment": "In vivo anti-osteoporosis activity testing in OVX rat model (serum calcium, phosphate, bone parameters)",
  "parameters": "species or system Female Wistar Rats",
  "conditions": "po",
  "from_the_text": "c) In Vivo Anti-Osteoporosis Activity Testing in OVX Rat Model: The ovariectomised (OVX) rats were used to study anti-osteoporosis activity of test compounds (short-chain peptides) in vivo. The OVX rats develop osteopenia due to ovarian hormone deficiency. Osteopenia can be detected as early as 14 days post OVX, increase for the next 100 days and then stabilised (Wronski T. J., et al., Calcif. Tissue Int., 43(3), 1988, 179-183). Detailed Study Protocol to Evaluate the Effects of Anabolic Therapy on Bone Markers and Histomorphometry in OVX Animals: 10 to 11 weeks old Female Wistar Rats (150-200 g) were used. The animals were kept in individually ventilated cages in a room with controlled temperature (23°±3° C.), lighting (12:12 h light-dark cycle) and relative humidity (55±10%). Animals had free access to standard rat chow and water. Protocol for use of animals for conducting this study has been reviewed and approved by Institutional Animal Ethics Committee (IAEC). The animals were marked with picric acid for identification and acclimatized to experimental room conditions for 2 days prior to initiation of the study. For the induction of osteoporosis, rats were bilaterally ovariectomised under anesthesia. For Ovariectomy, Incision was made on dorsa-lateral side near lumbar region of animal. After that, ovary was excised and the veins were tied with ligature before removing ovary to prevent blood loss. Then incision was sutured back with ligature. After Bilateral ovariectomy, animals were allowed to rest for 4 weeks. They were then divided into different groups (n=9) based on their body weight. The groups consisted of a no treatment control, PTH as standard and one or two groups of test compounds (short-chain peptides). The treatment was given for the duration of 6 weeks. At the last day of treatment animals were kept overnight in metabolic cages under fasting for the collection of Urine. Next day, blood was collected after 24 hours of last dosing and animals were sacrificed. Changes in biochemical parameters and bone turnover parameters (Increase in serum Calcium and decrease in Phosphate levels, Acid Phosphatase and TRAP) were evaluated in the urine and serum. After sacrificing, intact femur and tibial bones are removed and cleaned from adherent tissues, muscles and tendons; weighed and collected in formal saline (10% formaldehyde solution). Lumbar vertebra (L5) was excised, carefully cleaned and collected in formal saline. Femur, tibia and Lumbar vertebra-5 (L5) were later processed for histomorphometric evaluation (Zhang L., et al., Tohoku J Exp Med., 1998, 186(2), 131-41; Tanizawa T., et al., Toxicol Lett., 1998, 102, 399-403).",
  "note": "Where a SMILES comes first, the peptide text is derived from it. [ ]: non-standard residue; d: D form. ξ: configuration not given here. ξBip(2'-Et-4'-OMe) = CCc1cc(OC)ccc1-c1ccc(CC(N)C(=O)O)cc1; Arg(NO2) = N=C(NCCC[C@H](N)C(=O)O)N[N+](=O)[O-]; ξαMePhe(2,6-F2) = CC(N)(Cc1c(F)cccc1F)C(=O)O; ξαMePhe(2-F) = CC(N)(Cc1ccccc1F)C(=O)O; hArg = N=C(N)NCCCC[C@H](N)C(=O)O; hCit = NC(=O)NCCCC[C@H](N)C(=O)O; Cit = NC(=O)NCCC[C@H](N)C(=O)O; ξhhPhe = NC(CCCc1ccccc1)C(=O)O; Nle = CCCC[C@H](N)C(=O)O; Ac5c = NC1(C(=O)O)CCCC1; Ac3c = NC1(C(=O)O)CC1; Aib = CC(C)(N)C(=O)O",
  "data": [
    {"smiles": "CCCC[C@H](NC(=O)C(C)(Cc1c(F)cccc1F)NC(=O)[C@H](CCC(N)=O)NC(=O)[C@@H](NC(=O)[C@H](CCC(=O)O)NC(=O)C(C)(C)NC(=O)[C@@H](NC(=O)C1(N)CCCC1)C(C)C)[C@@H](C)CC)C(=O)N[C@@H](Cc1c[nH]cn1)C(=O)N[C@@H](CCC(N)=O)C(=O)N[C@@H](CCCNC(N)=O)C(=O)N[C@@H](C)C(=O)N[C@@H](CCCNC(=N)N[N+](=O)[O-])C(=O)NC(C)(Cc1c(F)cccc1F)C(N)=O", "note": "(stereo partly drawn) [Seq. ID. 407] (H-[Ac5c]V[Aib]EIQ[ξαMePhe(2,6-F2)][Nle]HQ[Cit]A[Arg(NO2)][ξαMePhe(2,6-F2)]-NH2)", "values": [
      {"measurement": "% decrease in serum PO4 Levels (mg/dl) vs control", "setting": "0.03 mg/kg", "result": 81, "unit": "%"},
      {"measurement": "% increase in serum Ca^2+ Levels (mg/dl) vs control", "setting": "0.03 mg/kg", "result": 77, "unit": "%"}
    ]},
    {"smiles": "CCCC[C@H](NC(=O)C(C)(Cc1c(F)cccc1F)NC(=O)[C@H](CCC(N)=O)NC(=O)[C@@H](NC(=O)[C@H](CCC(=O)O)NC(=O)C(C)(C)NC(=O)[C@@H](NC(=O)C(C)(C)N)C(C)C)[C@@H](C)CC)C(=O)N[C@@H](Cc1c[nH]cn1)C(=O)N[C@@H](CCC(N)=O)C(=O)N[C@@H](CCCCNC(N)=O)C(=O)N[C@@H](C)C(=O)N[C@@H](CCCNC(=N)N[N+](=O)[O-])C(=O)NC(C)(Cc1c(F)cccc1F)C(N)=O", "note": "(stereo partly drawn) [Seq. ID. 469] (H-[Aib]V[Aib]EIQ[ξαMePhe(2,6-F2)][Nle]HQ[hCit]A[Arg(NO2)][ξαMePhe(2,6-F2)]-NH2)", "values": [
      {"measurement": "% decrease in serum PO4 Levels (mg/dl) vs control", "setting": "0.01 mg/kg", "result": 65, "unit": "%"},
      {"measurement": "% increase in serum Ca^2+ Levels (mg/dl) vs control", "setting": "0.01 mg/kg", "result": 43, "unit": "%"}
    ]},
    {"smiles": "CCCC[C@H](NC(=O)C(C)(Cc1c(F)cccc1F)NC(=O)[C@H](CCC(N)=O)NC(=O)[C@@H](NC(=O)[C@H](CCC(=O)O)NC(=O)C(C)(C)NC(=O)[C@@H](NC(=O)C1(N)CCCC1)C(C)C)[C@@H](C)CC)C(=O)N[C@@H](Cc1c[nH]cn1)C(=O)N[C@@H](CCC(N)=O)C(=O)NC(C)(Cc1c(F)cccc1F)C(=O)N[C@@H](C)C(=O)NC(C)(Cc1c(F)cccc1F)C(=O)NC(C)(Cc1ccccc1F)C(N)=O", "note": "(stereo partly drawn) [Seq. ID. 511] (H-[Ac5c]V[Aib]EIQ[ξαMePhe(2,6-F2)][Nle]HQ[ξαMePhe(2,6-F2)]A[ξαMePhe(2,6-F2)][ξαMePhe(2-F)]-NH2)", "values": [
      {"measurement": "% decrease in serum PO4 Levels (mg/dl) vs control", "setting": "1 mg/kg", "result": 88, "unit": "%"},
      {"measurement": "% increase in serum Ca^2+ Levels (mg/dl) vs control", "setting": "1 mg/kg", "result": 84, "unit": "%"}
    ]},
    {"smiles": "CCCC[C@H](NC(=O)C(C)(Cc1ccccc1F)NC(=O)[C@H](CCC(N)=O)NC(=O)[C@@H](NC(=O)[C@H](CCC(=O)O)NC(=O)C(C)(C)NC(=O)[C@@H](NC(=O)C1(N)CCCC1)C(C)C)[C@@H](C)CC)C(=O)N[C@@H](Cc1c[nH]cn1)C(=O)N[C@@H](CCC(N)=O)C(=O)NC(C)(C)C(=O)NC(C)(C)C(=O)NC(C)(C)C(=O)NC(C)(Cc1ccccc1F)C(N)=O", "note": "(stereo partly drawn) [Seq. ID. 556] (H-[Ac5c]V[Aib]EIQ[ξαMePhe(2-F)][Nle]HQ[Aib][Aib][Aib][ξαMePhe(2-F)]-NH2)", "values": [
      {"measurement": "% decrease in serum PO4 Levels (mg/dl) vs control", "setting": "5 mg/kg", "result": 84, "unit": "%"},
      {"measurement": "% increase in serum Ca^2+ Levels (mg/dl) vs control", "setting": "5 mg/kg", "result": 77, "unit": "%"}
    ]},
    {"smiles": "CCCC[C@H](NC(=O)C(C)(Cc1c(F)cccc1F)NC(=O)[C@H](CCC(N)=O)NC(=O)[C@@H](NC(=O)[C@H](CCC(=O)O)NC(=O)C(C)(C)NC(=O)[C@@H](NC(=O)C1(N)CCCC1)C(C)C)[C@@H](C)CC)C(=O)N[C@@H](Cc1c[nH]cn1)C(=O)N[C@@H](CCC(N)=O)C(=O)NC(C)(C)C(=O)N[C@@H](C)C(=O)N[C@@H](CCCNC(=N)N[N+](=O)[O-])C(=O)NC(C)(Cc1c(F)cccc1F)C(N)=O", "note": "(stereo partly drawn) [Seq. ID. 599] (H-[Ac5c]V[Aib]EIQ[ξαMePhe(2,6-F2)][Nle]HQ[Aib]A[Arg(NO2)][ξαMePhe(2,6-F2)]-NH2)", "values": [
      {"measurement": "% decrease in serum PO4 Levels (mg/dl) vs control", "setting": "0.03 mg/kg", "result": 90, "unit": "%"},
      {"measurement": "% increase in serum Ca^2+ Levels (mg/dl) vs control", "setting": "0.03 mg/kg", "result": 110, "unit": "%"}
    ]},
    {"smiles": "CCc1cc(OC)ccc1-c1ccc(CC(NC(=O)[C@H](CCCCN)NC(=O)[C@H](C)NC(=O)[C@H](CCCCNC(=N)N)NC(=O)[C@H](CCC(N)=O)NC(=O)[C@H](Cc2c[nH]cn2)NC(=O)[C@H](CCSC)NC(=O)[C@H](CC(C)C)NC(=O)[C@H](CCC(N)=O)NC(=O)[C@@H](NC(=O)[C@H](CCC(=O)O)NC(=O)C2(NC(=O)[C@@H](NC(=O)C(C)(C)N)C(C)C)CC2)[C@@H](C)CC)C(=O)NC(CCCc2ccccc2)C(N)=O)cc1", "note": "(stereo partly drawn) [Seq. ID. 607] (H-[Aib]V[Ac3c]EIQLMHQ[hArg]AK[ξBip(2'-Et-4'-OMe)][ξhhPhe]-NH2)", "values": [
      {"measurement": "% decrease in serum PO4 Levels (mg/dl) vs control", "setting": "0.01 mg/kg", "result": 88, "unit": "%"},
      {"measurement": "% increase in serum Ca^2+ Levels (mg/dl) vs control", "setting": "0.01 mg/kg", "result": 78, "unit": "%"}
    ]}
  ]
}
